Results reported in paper PMC8040626, “A unique Malpighian tubule architecture in Tribolium castaneum informs the evolutionary origins of systemic osmoregulation in beetles” (Proceedings of the National Academy of Sciences of the …, 2021).
“Also recorded” adds a separate entry of the source.

Assays:
larger PC-type of MTs = assay: Ex vivo ligand-receptor binding assay, adephagan species
Text: (§1) Collectively, our work points to a model in which beetle MT function operates via a two-cell–type model that is different from that of all other higher insects ([11]). To determine whether this epithelial organization is universal among beetles or, alternatively, a derived trait specific to the drought-resistant tenebrionid species, we adapted the ligand-receptor binding assay (as used in Fig. 2C) to systematically map MT tissue architecture across the beetle phylogeny. In our sampling strategy, we prioritized species representative of the larger beetle families while trying to select species inhabiting different types of ecological niches (dry, moist, or aquatic). […]
(§2) Ligand-Receptor Binding Assay. […] Next, the tissues were set-up in a matched-pair protocol, in which one batch was incubated in the appropriate insect saline added the labelled neuropeptide analogue ([…]) and DAPI (1 µg ml-1), while the other was incubated in just DAPI; the latter batch was used to adjust baseline filter and exposure settings to minimize auto-fluorescence during image acquisition.
(§3) Images were subsequently recorded on a Zeiss LSM 800 confocal microscope using baseline filter and exposure settings. […]
(§4) Electrophysiological assays. […] In brief, the ion-selective microelectrode voltage was measured at a position close to the tissue (3–5 μm) and subsequently at a more distant position (app. 50 μm) from the tubule. […]

[1] = tested on: Urn8R on the SC basal membrane; assay: Ex vivo ligand-receptor binding assay, T. castaneum tubules; set-up: species or system Tribolium castaneum; conditions: T. castaneum MTs, labelled peptide 10^-7 M, confocal microscopy
Text: To dissect the molecular mechanism underpinning Urn8-mediated control of tubule function, we immunolocalized Urn8R to the tubule epithelium of T. castaneum. […] The SC identity of this Urn8R-expressing cell type was verified by colocalization of the Tiptop transcription factor, which is known to control SC differentiation in other insects ([21]) (SI Appendix, Fig. S2A). The fact that the Urn8 pathway is confined exclusively to SCs in T. castaneum is in contrast to that of all other insects studied to date in which this hormonal circuit is diagnostic of PC activity, the majority cell type ([22]–[24]). […] Specificity of the antibody was verified by the lack of staining in MTs from Urn8R-silenced animals, and by the fact that the molecular weight of the protein corresponds to the predicted size of the receptor (Fig. 2 A and B). […]
as §2, §3

[2] = tested on: small-nucleated SC-type of MTs; assay: Ex vivo ligand-receptor binding assay, polyphagan beetles; conditions: all polyphagan beetles
Text: as §1, §2, §3, §4

[3] = tested on: basolateral membranes of SCs in MTs; assay: Ex vivo ligand-receptor binding assay, T. molitor tubules; set-up: species or system Tenebrio molitor; conditions: labelled peptide 10^-7 M, confocal microscopy
Text: Fig. 2. The Urn8 receptor localizes to a secondary cell type in MTs and is activated by its endogenous ligands DH37 and DH47. (A) Urn8R is expressed in a subpopulation of cells throughout the “free” part of the T. castaneum MT (small arrows); there are 53 ± 2 (n = 8) cells per tubule. […] (Scale bars, Left, 150 μm; Middle and Right, 30 μm.) (B) Western blot analysis of protein extracts from T. castaneum tubules showing that the anti-Urn8R antiserum recognizes a protein of a size of approximately 50 to 55 kDa, consistent with the predicted size of the receptor (51.6 kDa for the dominant -RA isoform, arrow). (C) Application of fluorophore-coupled receptor agonists DH37-F and DH47-F (10^−7 M) to T. castaneum and T. molitor MTs. […] Values are expressed as mean ± SEM. […]
as §2, §3

[4] = tested on: tubule basolateral membranes; assay: Ex vivo ligand-receptor binding assay, all beetle species sampled; set-up: species or system all species sampled (beetles)
Text: as §1, §2, §3, §4

Substance | Binding of fluorophore-coupled ligand, cell type (larger PC-type of MTs) | Binding of fluorophore-coupled ligand [1] | Binding of fluorophore-coupled ligand, cell type [2] | Binding of fluorophore-coupled ligand [3] | Binding of fluorophore-coupled ligand [4]
TMR-C5-maleimide-AGALGESGASLSIVNSLDVLRNRLLLEIARKKAKEGANRNRQILLSLamide [DH47-F, fluorophore-coupled DH47 analog, TMR-C5-maleimide labelled] | confined to a larger PC-type | bind to basolateral membranes of SCs; also recorded: Specific and displaceable binding to the SCs | localized entirely to a small-nucleated SC-type | bind to basolateral membranes of SCs; also recorded: Specific and displaceable binding to the SCs | specific and displaceable
TMR-C5-maleimide-SPTISITAPIDVLRKTWAKENMRKQMQINREYLKNLQamide [DH37-F, fluorophore-coupled DH37 analog, TMR-C5-maleimide labelled] | confined to a larger PC-type | bind to basolateral membranes of SCs; also recorded: Specific and displaceable binding to the SCs | localized entirely to a small-nucleated SC-type | bind to basolateral membranes of SCs; also recorded: Specific and displaceable binding to the SCs | specific and displaceable
